Measurements published in patent US10799501B2, “Combination of an inhibitor of PARP with an inhibitor of GSK-3 or DOT1L” (King's College London, priority 2015, dated 2020).

How the values were obtained:
[1] = tested on: PML-RARα transformed cells; test: In vitro drug treatment of primary murine hematopoietic cells transformed by PML-RARα (RTTA); format: cell-based, mouse
Protocol: Transduction using concentrated viral supernatant expressing the oncogene of interest was carried out by centrifugation (spinoculation) at 800 g at 32° C. for 2 hours in the presence of 5 μg ml^-1 polybrene (Sigma-Aldrich). Cells were subsequently plated in 1% methylcellulose medium ([…]; Stem Cell Technologies) containing 20 ngml^-1 SCF, 10 ngml^-1 IL-3, 10 ngml^-1 IL-6 and 10 ngml^-1 granulocyte macrophage colony-stimulating factor (GM-CSF) and appropriate selection antibiotic. Colonies were counted after 7 days of culture and replated every 6-7 days at 5×103-1.5×10^4 cell density. Re-plating was performed weekly to generate primary cell lines for further analysis. After the third or fourth round of plating, cells were cultured in R20/20 medium (RPMI 1640, 20% FCS, 20% WEHI-conditioned medium, 2 mM L-glutamine, 100 U/ml penicillin, and 100 μg/ml streptomycin) supplemented with 20 ngml^-1 stem cell factor (SCF), 10 ngml^-1 interleukin (IL)-3, and 10 ngml^-1 IL-6 to establish cell lines. All recombinant murine cytokines were from PeprotechEC. […] Colonies were scored 6-7 days after plating. For other in vitro studies, mouse leukemic cells and primary AML cell lines were subjected to continuously Olaparib (1 μM) or LiCl (8 mM) treatment in liquid culture for whole duration as indicated in the figures or figure legends. For human leukemic cell lines, experiments were performed as described above with 5 μM Olaparib. For each assay 1×10^5 cells were collected, washed in PBS and re-suspended in Annexin V binding solution (25 mM Hepes, 140 mM KCl, 2.5 mM CaCl2 pH 7.2). After centrifugation at 500 g for five minutes the cells were incubated with the Annexin V Binding solution containing 0.25 ug/ml mouse anti Annexin V-FITC antibody (Biolegend 640906) and 1 ug/ml propidium iodide in the dark for 30 minutes at 4° C. Samples were then washed in PBS analysed at the FACS LSRII (BD Biosciences Pharmingen) with FACS Diva. Cells were cytospun onto a glass slide at 400 g for 5 minutes and then fixed for 10 minutes with 2% formaldehyde/0.2% glutaraldehyde (Sigma Aldrich). Cells were then washed with PBS, and then incubated at 37° C. for at least 2 hours with a staining solution (30 mM Citric Acid/Phosphate buffer, 5 mM K4Fe(CN)6, 5 mM K3Fe(CN)6, 150 mM NaCl, 2 mM MgCl2, 1 mg/ml X-Gal) (All reagents from Sigma-Aldrich)62. Cells were counted in at least 5 fields for each slide, for a total of over 100 cells. The percentage of senescent cells was calculated by the percentage of the number of blue cell in the field. Cells were cytospun onto a glass slide at 400 g for 5 minutes and then fixed for 30 minutes in 4% PFA and permeabilized and blocked in 0.8% Tx-100, 10% FBS/1% BSA (Sigma-Aldrich) in PBS for 15 min at room temperature. Mouse anti mouse γH2AX ([…]) (Upstate clone JBW301#05-636) and rabbit anti mouse RAD51 (Santa Cruz Biotecnology […]# sc-8349) were diluted in TBS containing 10% FBS/1% BSA and incubated overnight at 4C. […] Slides were then washed five times at 10 min each with PBS. Slides were briefly washed in water and air-dried prior to mounting with Mowiol-DABCO and a coverslip. Cells were counted in at least 5 fields for each slide, for a total of over 100 cells per condition. 1×10^5 cells were cytospun for 5 min at 300 g onto glass slides. Slides were then stained with May-Grunwald solution (Sigma-Aldrich) for 3 min at room temperature. After washing in water, they were incubated for 20 min in Giemsa solution (Sigma-Aldrich) (1:20 in water). Slides were washed again in water before being mounted with Mowiol. Cells were counted in at least 5 fields for each slide, for a total of over 100 cells per condition. NBT reduction assay were performed to determine myeloid differentiation. 0.1% of NBT (final concentration) was added to the liquid culture or semi-solid methocult and incubated at 37° C. CO2 incubator for 3 hrs and 12 hrs, respectively. […]

MLL pre-LSC = test: Colony formation of MLL pre-LSC with PARPi, LiCl or combination; format: cell-based, mouse; details: seven days; 8 mM LiCl, 1 μM Olaparib
Protocol: Colonies were scored 6-7 days after plating. For other in vitro studies, mouse leukemic cells and primary AML cell lines were subjected to continuously Olaparib (1 μM) or LiCl (8 mM) treatment in liquid culture for whole duration as indicated in the figures or figure legends. For human leukemic cell lines, experiments were performed as described above with 5 μM Olaparib. 1×10^5 cells were cytospun for 5 min at 300 g onto glass slides. Slides were then stained with May-Grunwald solution (Sigma-Aldrich) for 3 min at room temperature. After washing in water, they were incubated for 20 min in Giemsa solution (Sigma-Aldrich) (1:20 in water). Slides were washed again in water before being mounted with Mowiol. Cells were counted in at least 5 fields for each slide, for a total of over 100 cells per condition. NBT reduction assay were performed to determine myeloid differentiation. 0.1% of NBT (final concentration) was added to the liquid culture or semi-solid methocult and incubated at 37° C. CO2 incubator for 3 hrs and 12 hrs, respectively. Cells were then washed in PBS and the differentiated cells were indicated by the deposition of dark blue insoluble formazan (NBT positive cells) and the percentage of differentiated cells were counted under microscopy. At least 200 cells were counted in most of the cases.

For `O=C(c1cc(Cc2n[nH]c(=O)c3ccccc23)ccc1F)N1CCN(C(=O)C2CC2)CC1` [Olaparib, 4-[(3-[(4-cyclopropylcarbonyl)piperazin-4-yl]carbonyl)-4-fluorophenyl]methyl(2H)-phthalazin-1-one], the “suppression of colony forming ability” value ([1]; 1 uM Olaparib, methylcellulose 7 days, p<0.001) was “about 90%”, the “apoptosis (Annexin V/PI)” value ([1]; PARPi 24 hrs and 48 hrs) was “induced apoptosis” and the “senescence (β-galactosidase staining)” value ([1]; PARPi 24 hrs and 48 hrs) was “underwent significant senescence”. For the same compound, the “Rad51 recruitment to DNA damage sites (RAD51 foci)” value ([1]; PARPi treatment for 6 hours) was “no significant Rad51 recruitment”, the “percentage of differentiation (morphology and NBT reduction)” value ([1]; time course PARPi treatment) was “significantly increased the percentage of differentiation” and the “cells with γH2AX and Rad51 foci ratio greater than 2” value ([1]; upon PARPi treatment) was “around 80%”. For the same compound, the “colony forming ability / growth inhibition” value (MLL pre-LSC) was “non-effective”.
